Results on 13 compounds are retold here after PubChem BioAssay (NCI).

Structures are written as SMILES. Where “and” joins values, the source holds several entries; their conditions need not be identical. Equal entries are not always repeated.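 In this assay, cells in 96-well plates receive the compound at five concentrations for 48 hours. Endpoints are linearly interpolated between the surrounding concentrations. GI50: concentration for 50% inhibition of growth. TGI: total growth inhibition.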

Experiment in all cases: growth of human tumour cells (NCI), 48 h
Test [1] deals with HCT-116 colon.
Test [2] concerns CAKI-1 renal.
The test system of test [3] is UO-31 renal.
The test system of test [4] is EKVX NSCLC.
Test [5] has as its system K-562 leukemia.
Test [6] deals with U251 CNS.
In test [7] the test system is ACHN renal.
Test [8] relates to OVCAR-8 ovarian.
Test [9] deals with A549 NSCLC.
In test [10] the test system is HS 578T breast.

Regarding `NCCCCc1cc(O)c2c(c1O)C(=O)c1ccccc1C2=O`, the TGI is 18.1 µM in [1]; 27.2 µM in test [2]; 20.3 µM in test [3]; 33.5 µM in [4]; 17.3 µM in test [5]; > 43 µM in test [6]. Further, the TGI was 25.4 µM in [7], 16.3 µM in [8] and 16.9 µM in test [9].

In the case of `CCn1c(-c2ccc(N=NNc3ccc(-c4n[nH]c(=S)n4CC)cc3)cc2)n[nH]c1=S`, the TGI in [1] was > 100 µM; in test [3] it was 5.62 µM; in test [4], 75.4 µM; in test [5], > 100 µM; in [7], 6.1 µM; in [8], 6.96 µM. The TGI in test [10] and in test [9] was > 100 µM throughout.

For `O=C(O)C1C2CCC(O2)C1C(=O)Nc1cccc2cccnc12` (stereo not given), the TGI in test [1], in test [2], in test [3], in test [4], in [5] and in test [6] was > 100 µM in each case. Moreover, the TGI in [7], in test [10] and in test [9] was > 100 µM throughout.

Consider `CNc1ccc2c(c1)[C@@]1(C)c3ccccc3[C@@H](C2)N1C`, for which the TGI in [1] was 33.4 µM; in [2] it was > 100 µM; in test [3] it was > 100 µM; in test [4] it was 97.3 µM; in [5], 67.5 µM; in test [6] it was 47.5 µM. Besides, the TGI in [7], in [10] and in [9] was > 100 µM in each case.

On to `CC1CC[C@@]2(OC1)OC1C[C@H]3[C@@H]4CC=C5CC(OC6OC(CO)C(OC7OC(CO)C(O)C(OC8OCC(O)C(O)C8O)C7OC7OC(CO)C(O)C(O)C7O)C(O)C6O)CCC5(C)[C@H]4CCC3(C)C1[C@@H]2C` (stereo not given in full), for which the TGI in test [1] came to 8.14 µM; in test [2], 10.3 µM; in test [4] it was 9.01 µM; in test [5], 17.7 µM; in test [6] it was 8.72 µM; in [7] it was 10.6 µM. In addition, the TGI in [8] was determined as 8.95 µM; in test [10], 9.57 µM; in test [9], 8.01 µM.

As to `O=C(/C=C/c1ccccc1)NNC(=O)c1c(Cl)c(Cl)c(Cl)c(Cl)c1-c1nc2ccccc2[nH]1`, the TGI in test [1] was 53.6 µM; in test [2] it was > 100 µM; in test [3], 55.6 µM; in test [4], > 100 µM; in [5], > 100 µM; in [7], > 100 µM. The values for the TGI in test [8] and in test [9] were > 100 µM and 67.7 µM, respectively.

`Nc1nc(SCCc2ccccc2)nc2nc3c(c(-c4ccccc4)c12)CCCC3`: the TGI in test [2], in test [3], in test [4], in [5], in test [6] and in test [7] was > 100 µM throughout. Moreover, the TGI in test [8] is > 100 µM; in test [10], 64.7 µM; in test [9], > 100 µM.

On to `NCCSC(c1ccccc1)c1ccccc1`, for which the TGI is 30.9 µM in test [1]; 67.2 µM in [2]; 33.2 µM in [3]; 70.1 µM in test [4]; 33.3 µM in test [6]; > 100 µM in [7]. The TGI was 44 µM in [8], 76.5 µM in test [10] and > 100 µM in [9].

`COc1ccc(C(=O)/C=C/c2cccc([N+](=O)[O-])c2)c(OC)c1`: the GI50 in [1] is 0.767 µM; in [2], 1.98 µM; in test [4], > 50 µM; in test [5] it was 0.999 µM; in test [6], 0.881 µM; in test [8], 1.78 µM. Besides, the GI50 was 3.85 µM in [10] and 2.56 µM in [9]. Further, the TGI in test [1] was 1.68 µM; in test [2], > 50 µM; in [4], > 50 µM; in test [5], 3.08 µM; in test [6], 1.72 µM; in [8], > 50 µM. Further, the TGI in test [10] and in [9] was > 50 µM each time.

Consider `CCCCCCCCC/C=C/C=C/C(=O)NCC(=O)NC1C(O)C(O)C(Nc2ncnc3nc[nH]c23)OC1C(O)CO` (stereo not given), for which the GI50 in test [1] was 0.00251 µM; in test [3], 0.00344 µM; in [5] it was 0.36 µM; in [6], 0.00214 µM; in test [7], 0.0144 µM; in [8], 0.00555 µM. Also, the GI50 in test [10] was 0.201 µM; in [9], 0.00608 µM. In addition, the TGI is > 100 µM in test [1]; 0.0105 µM and 0.0747 µM in test [2]; 0.0177 µM and 0.0219 µM in [3]; > 100 µM in [5]; 0.0217 µM in test [6]; 0.077 µM in [8].

Take `CN(C)CC(CC1=C(CC(CN(C)C)N(C)C)CCC1)N(C)C` (stereo not given): the TGI in test [1], in test [2], in [3], in test [4], in [5] and in [6] was > 100 µM in each case. The TGI in test [8] and in [9] was > 100 µM throughout.

Consider `NC(=O)c1c(NC(=O)c2ccccn2)sc2c1CCC(=O)C2`, for which the GI50 was 3.5 µM in test [1]; 1.82 µM in test [3]; 5.01 µM in test [4]; 1.54 µM in test [5]; 2.14 µM in test [6]; 2.62 µM in [7]. Also, the GI50 is 3.45 µM in test [8], 4.22 µM in test [10] and > 100 µM in test [9]. Further, the TGI in [1] was > 100 µM; in test [3], 6.63 µM; in [4], > 100 µM; in test [5], > 100 µM; in test [6], > 100 µM; in test [7], > 100 µM. Further, the TGI in [8], in [10] and in test [9] was > 100 µM throughout.

On to `CC1=CC(=O)c2ccccc2C1=O`, for which the TGI in test [1] was 5.33 µM; in [2] it was 29.7 µM; in test [3], 14 µM; in test [4], 31.8 µM; in [6], 26.4 µM; in test [7], 13.1 µM. Besides, the TGI came to 22.7 µM in test [8], 41.4 µM in test [10] and 40.2 µM in test [9].
